Measured values: patent US8354403B2, “Pyrrolidine derived beta 3 adrenergic receptor agonists” (Merck Sharp & Dohme Corp., priority 2009, dated 2013)
Read-outs that look alike come from different tables or passages of the source.

Legend:
β3AR = target: T1, β3AR (Rattus norvegicus, UniProt P26255); conditions: rats, intravenous administration, cited from earlier work
T1 construct: host or cells: live rats (bladder, in vivo)

[1] = target: T2, human β3 adrenergic receptor (Homo sapiens, UniProt P13945); assay: Beta-3 agonist in vitro functional assay: cAMP production (LANCE TR-FRET) in CHO cells stably transfected with the cloned β3 receptor; format: cell-based
T2 construct: expressed in transfected cells; host or cells: Chinese hamster ovary (CHO) cells, stably transfected
Method in brief: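 CHO cells stably expressing the cloned receptor, in HEPES-buffered HBSS with BSA and 0.6 mM IBMX, 6,000 cells/well, exposed to compound for 30 min at RT. cAMP read by LANCE TR-FRET against a cAMP standard curve. Isoproterenol defines maximal stimulation.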

[2] = Table 11, cAMP, CHO cells, read-out: Human β3 agonist functional activity
[3] = Table 10, Beta-3 agonist in vitro functional assay, read-out: Human β3 agonist functional activity
[4] = Table 9, Beta-3 agonist in vitro functional assay, read-out: Human β3 agonist functional activity
[5] = Table 8, Beta-3 agonist in vitro functional assay, read-out: Human β3 agonist functional activity
[6] = Table 12, human β3 functional activity given as ranges, read-out: Human β3 agonist functional activity
[7] = Table 5, cAMP, CHO cells, read-out: Human β3 agonist functional activity
[8] = Table 4, cAMP, CHO cells, read-out: Human β3 agonist functional activity

T1 sequence (P26255 whole entry): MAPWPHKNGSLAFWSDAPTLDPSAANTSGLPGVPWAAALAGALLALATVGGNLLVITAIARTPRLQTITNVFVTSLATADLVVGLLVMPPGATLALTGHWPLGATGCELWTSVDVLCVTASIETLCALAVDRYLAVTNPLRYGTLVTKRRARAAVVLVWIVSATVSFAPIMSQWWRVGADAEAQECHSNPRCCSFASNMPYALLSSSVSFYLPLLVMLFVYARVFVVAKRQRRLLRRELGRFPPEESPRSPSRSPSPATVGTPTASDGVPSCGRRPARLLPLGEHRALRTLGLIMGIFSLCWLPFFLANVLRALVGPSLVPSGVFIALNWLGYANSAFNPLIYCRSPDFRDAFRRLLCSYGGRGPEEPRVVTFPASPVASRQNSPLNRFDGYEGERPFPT
T2 sequence (P13945 whole entry): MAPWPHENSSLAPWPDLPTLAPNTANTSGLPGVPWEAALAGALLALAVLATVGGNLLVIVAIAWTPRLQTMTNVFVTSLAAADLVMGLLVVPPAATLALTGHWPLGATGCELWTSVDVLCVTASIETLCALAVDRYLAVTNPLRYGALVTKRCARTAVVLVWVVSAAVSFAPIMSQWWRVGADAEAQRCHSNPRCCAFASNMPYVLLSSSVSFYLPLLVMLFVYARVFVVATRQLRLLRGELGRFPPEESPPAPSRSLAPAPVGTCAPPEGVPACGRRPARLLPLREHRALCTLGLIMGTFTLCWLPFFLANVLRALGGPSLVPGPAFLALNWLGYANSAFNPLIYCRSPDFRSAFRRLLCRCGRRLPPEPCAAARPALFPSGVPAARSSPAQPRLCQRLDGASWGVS

In the case of C[C@H](Cc1ccc2c(c1)OC(C(=O)[O-])(C(=O)[O-])O2)NC[C@H](O)c1cccc(Cl)c1.[Na+].[Na+] [CL316243], the bladder capacity (β3AR; cystometric studies) is listed as “increases bladder capacity”, the micturition interval (β3AR; cystometric studies) is listed as “prolongation of micturition interval” and the residual urine volume (β3AR; cystometric studies) is listed as “without increasing residual urine volume”. The bladder pressure (β3AR) was “reduces bladder pressure”.
C[C@H](c1ccccn1)N1CC2CCC1CN2C(=O)c1ccc(C[C@@H]2CC[C@H]([C@H](O)c3ccccc3)N2)cc1 (stereo partly shown) [Example 541] showed an EC50 [1, 2] of 100 to 999 nM.
Compound CC(C(=O)N1CCC(O)CC1)N1CCN(C(=O)c2ccc(C[C@@H]3CC[C@H]([C@H](O)c4ccccc4)N3)cc2)CC1 (stereo partly shown) [Example 489] has an EC50 [1, 3] of 10 to 99.9 nM.
O=C(O)COc1cccnc1N1CCN(C(=O)c2ccc(C[C@@H]3CC[C@H]([C@H](O)c4ccccc4)N3)cc2)CC1 [Example 367] gave an EC50 [1, 4] of 100 to 999 nM.
In the case of Cc1cccnc1N1CCN(C(=O)c2ccc(C[C@@H]3CC[C@H]([C@H](O)c4ccccc4)N3)cc2)CC1 [Example 364], the EC50 [1, 4] is reported as 10 to 99.9 nM.
For CC1(C)CC2(CCN(C(=O)c3ccc(C[C@@H]4CC[C@H]([C@H](O)c5ccccc5)N4)cc3)CC2)C(=O)O1 [Example 293], the EC50 [1, 5] was 1 to 9.9 nM.
NC1CCCC12CCN(C(=O)c1ccc(C[C@@H]3CC[C@H]([C@H](O)c4ccccc4)N3)cc1)CC2 (stereo partly shown) [Example 315] gave an EC50 [1, 5] of 100 to 999 nM.
Work on O=C(c1ccc(C[C@@H]2CC[C@H]([C@H](O)c3ccccc3)N2)cc1)N1CCC(F)(S(=O)(=O)c2ccc(F)cc2)CC1 [Example 240] yielded an EC50 [1, 5] of 10 to 99.9 nM.
COCCNC(=O)C(C)N1CCN(C(=O)c2ccc(C[C@@H]3CC[C@H]([C@H](O)c4ccccc4)N3)cc2)CC1 (stereo partly shown) [Example 442] gave an EC50 [1, 3] of 100 to 999 nM.
For O=C(c1ccc(C[C@@H]2CC[C@H]([C@H](O)c3ccccc3)N2)cc1)N1C[C@@H]2C(n3cnnn3)[C@@H]2C1 (stereo partly drawn) [Example 169, (R)-phenyl[(2R,5S)-5-(4-{[(1R,5S,6r)-6-(1H-tetraol-1-yl)-3-azabicyclo[3.1.0]hex-3yl]carbonyl}benzyl)pyrrolidine-2-yl]methanol], the EC50 ([1]; given as a range, cAMP, CHO cells, read-out: human β3 functional activity) was 1 to 9.9 nM.
CC(C(=O)N1CCCC2(CCC2)C1)N1CCN(C(=O)c2ccc(C[C@@H]3CC[C@H]([C@H](O)c4ccccc4)N3)cc2)CC1 (stereo partly shown) [Example 496] gave an EC50 [1, 3] of 10 to 99.9 nM.
Compound O=C(c1ccc(C[C@@H]2CC[C@H]([C@H](O)c3ccccc3)N2)cc1)N1CCC(c2ccccc2)(c2nnn[nH]2)CC1 [Example 242] has an EC50 [1, 5] of 10 to 99.9 nM.
O=C(c1ccc(C[C@@H]2CC[C@H]([C@H](O)c3ccccc3)N2)cc1)N1CCN(Cc2ncco2)CC1 [Example 392] showed an EC50 [1, 4] of 10 to 99.9 nM.
In the case of CC(c1ccn(C)n1)N1CCN(C(=O)c2ccc(CC3CCC(C(O)c4ccccc4)N3)cc2)CC1 (single isomer, unassigned) [Example 578], the EC50 [1, 6] is reported as 100 to 999 nM.
Work on O=C(c1ccc(C[C@@H]2CC[C@H]([C@H](O)c3ccccc3)N2)cc1)N1CCC(Cn2cccn2)CC1 [Example 143] yielded an EC50 [1, 7] of 10 to 99.9 nM.
Work on O=C(c1ccc(C[C@@H]2CC[C@H]([C@H](O)c3ccccc3)N2)cc1)N1CCc2c(O)noc2C1 [Example 54] yielded an EC50 ([1]; Human β3 agonist functional activity) of 100 to 999 nM.
For CC(C(=O)N(C)C)N1CCN(C(=O)c2ccc(C[C@@H]3CC[C@H]([C@H](O)c4ccccc4)N3)cc2)CC1 (stereo partly shown) [Example 513], the EC50 [1, 3] was 1 to 9.9 nM.
O=C(c1ccc(C[C@@H]2CC[C@H]([C@H](O)c3ccccc3)N2)cc1)N1CCC2(CC1)OCC[S+]2[O-] (stereo partly shown) [Example 304] showed an EC50 [1, 5] of 100 to 999 nM.
Work on O=C(c1ccc(C[C@@H]2CC[C@H]([C@H](O)c3ccccc3)N2)cc1)N1CC2CC(n3cncn3)CC2C1 (stereo partly shown) [Example 22] yielded an EC50 [1, 8] of 100 to 999 nM.
O=C(c1ccc(CC2CCC(C(O)c3cccnc3)N2)cc1)N1CCC2(CC1)C(=O)NCC2c1ccc(F)cc1 (single isomer, unassigned) [Example 555] gave an EC50 [1, 6] of 1 to 9.9 nM.
For CC(C(=O)NCC1(O)CC1)N1CCN(C(=O)c2ccc(C[C@@H]3CC[C@H]([C@H](O)c4ccccc4)N3)cc2)CC1 (stereo partly shown) [Example 449], the EC50 [1, 3] was 10 to 99.9 nM.
CCS(=O)(=O)n1cc2c(n1)CN(C(=O)c1ccc(C[C@@H]3CC[C@H]([C@H](O)c4ccccc4)N3)cc1)C2 [Example 29] gave an EC50 [1, 8] of 100 to 999 nM.
In the case of CC(C)NC(=O)C(C)N1CCN(C(=O)c2ccc(C[C@@H]3CC[C@H]([C@H](O)c4ccccc4)N3)cc2)CC1 (stereo partly shown) [Example 437], the EC50 [1, 3] is reported as 100 to 999 nM.
In the case of O=C(c1ccc(C[C@@H]2CC[C@H]([C@H](O)c3ccccc3)N2)cc1)N1CCC(S(=O)(=O)CC(F)(F)F)CC1 [Example 125], the EC50 [1, 7] is reported as 10 to 99.9 nM.
With CC(C)Oc1cccnc1N1CCN(C(=O)c2ccc(C[C@@H]3CC[C@H]([C@H](O)c4ccccc4)N3)cc2)CC1 [Example 363] the EC50 [1, 4] was 10 to 99.9 nM.
In the case of C[C@@H]1CN(C(=O)c2ccc(C[C@@H]3CC[C@H]([C@H](O)c4ccccc4)N3)cc2)C[C@H](C)N1Cc1ccccn1 [Example 533], the EC50 [1, 2] is reported as 100 to 999 nM.
With O=C(c1ccc(C[C@@H]2CC[C@H]([C@H](O)c3ccccc3)N2)c(Br)c1)N1CC2C(C1)C2n1cnnn1 (stereo partly shown) [Example 609] the EC50 ([1]; Table 13, human Beta-3 agonist functional activity given as range, read-out: Human β3 agonist functional activities) was 1 to 9.9 nM.
For O=C(c1ccc(C[C@@H]2CC[C@H]([C@H](O)c3ccccc3)N2)cc1)N1Cc2cncnc2C1 [Example 25], the EC50 [1, 8] was 100 to 999 nM.
With O=C(c1ccc(C[C@@H]2CC[C@H]([C@H](O)c3ccccc3)N2)cc1)N1CCN(Cc2nc3ccccc3o2)CC1 [Example 403] the EC50 [1, 4] was 1 to 9.9 nM.
O=C(c1ccc(C[C@@H]2CC[C@H]([C@H](O)c3ccccc3)N2)cc1)N1CCC(N2C(=O)OCc3ccccc32)CC1 [Example 69] showed an EC50 [1, 7] of 1 to 9.9 nM.
Work on CCNC(=O)C(C)N1CCN(C(=O)c2ccc(C[C@@H]3CC[C@H]([C@H](O)c4ccccc4)N3)cc2)CC1 (stereo partly shown) [Example 436] yielded an EC50 [1, 3] of 100 to 999 nM.
